System: Key Grass and Sedge Weeds as well as Grass Crops
Assay: Post-Emergent Test II (Table 6)
Type: in vivo
Settings: post-emergence, 336 h, CYPSS, 70 g ai/ha, 14 days after application, read-out: Visual Growth Reduction (%) 14 Days After Application CYPSS
How it was run: (§1)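 Seedlings are raised 7-21 days in Metro-Mix 360 (pH 6.0-6.8) under greenhouse conditions, then sprayed at the first or second true leaf stage. Application is 187 L/ha, with serial rates down to 1/16× of the highest. Plants are subirrigated, and percent injury is rated visually after 14 days.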

SMILES | pest or weed control at 70 g/ha [%]
COC(=O)c1nc(-c2c(F)cc(Cl)c(F)c2C)cc(N)c1Cl [Compound 38, methyl 4-amino-3-chloro-6-(4-chloro-3,6-difluoro-2-methylphenyl)picolinate] | 0 to 29

Same assay, conditions: post-emergence, 336 h, CYPSS, 140 g ai/ha, 14 days after application, read-out: Visual Growth Reduction (%) 14 Days After Application CYPSS

SMILES | pest or weed control at 140 g/ha [%]
COC(=O)c1nc(-c2c(F)cc(Cl)c(F)c2C)cc(N)c1Cl [Compound 38, methyl 4-amino-3-chloro-6-(4-chloro-3,6-difluoro-2-methylphenyl)picolinate] | 0 to 29

Same assay, conditions: post-emergence, 336 h, DIGSA: crabgrass (Digitaria sanguinalis), 70 g ai/ha, 14 days after application, read-out: Visual Growth Reduction (%) 14 Days After Application DIGSA

SMILES | pest or weed control at 70 g/ha [%]
COC(=O)c1nc(-c2c(F)cc(Cl)c(F)c2C)cc(N)c1Cl [Compound 38, methyl 4-amino-3-chloro-6-(4-chloro-3,6-difluoro-2-methylphenyl)picolinate] | 0 to 29

Same assay, conditions: post-emergence, 336 h, DIGSA: crabgrass (Digitaria sanguinalis), 140 g ai/ha, 14 days after application, read-out: Visual Growth Reduction (%) 14 Days After Application DIGSA

SMILES | pest or weed control at 140 g/ha [%]
COC(=O)c1nc(-c2c(F)cc(Cl)c(F)c2C)cc(N)c1Cl [Compound 38, methyl 4-amino-3-chloro-6-(4-chloro-3,6-difluoro-2-methylphenyl)picolinate] | 0 to 29

Same assay, conditions: post-emergence, 336 h, ECHSS, 70 g ai/ha, 14 days after application, read-out: Visual Growth Reduction (%) 14 Days After Application ECHSS

SMILES | pest or weed control at 70 g/ha [%]
COC(=O)c1nc(-c2c(F)cc(Cl)c(F)c2C)cc(N)c1Cl [Compound 38, methyl 4-amino-3-chloro-6-(4-chloro-3,6-difluoro-2-methylphenyl)picolinate] | 0 to 29

Same assay, conditions: post-emergence, 336 h, ECHSS, 140 g ai/ha, 14 days after application, read-out: Visual Growth Reduction (%) 14 Days After Application ECHSS

SMILES | pest or weed control at 140 g/ha [%]
COC(=O)c1nc(-c2c(F)cc(Cl)c(F)c2C)cc(N)c1Cl [Compound 38, methyl 4-amino-3-chloro-6-(4-chloro-3,6-difluoro-2-methylphenyl)picolinate] | 0 to 29

Same assay, conditions: post-emergence, 336 h, ORYSS (crop), 70 g ai/ha, 14 days after application, read-out: Visual Growth Reduction (%) 14 Days After Application ORYSS

SMILES | pest or weed control at 70 g/ha [%]
COC(=O)c1nc(-c2c(F)cc(Cl)c(F)c2C)cc(N)c1Cl [Compound 38, methyl 4-amino-3-chloro-6-(4-chloro-3,6-difluoro-2-methylphenyl)picolinate] | 0 to 29

Same assay, conditions: post-emergence, 336 h, ORYSS (crop), 140 g ai/ha, 14 days after application, read-out: Visual Growth Reduction (%) 14 Days After Application ORYSS

SMILES | pest or weed control at 140 g/ha [%]
COC(=O)c1nc(-c2c(F)cc(Cl)c(F)c2C)cc(N)c1Cl [Compound 38, methyl 4-amino-3-chloro-6-(4-chloro-3,6-difluoro-2-methylphenyl)picolinate] | 0 to 29

Same assay, conditions: post-emergence, 336 h, SETFA: giant foxtail (Setaria faberi), 70 g ai/ha, 14 days after application, read-out: Visual Growth Reduction (%) 14 Days After Application SETFA

SMILES | pest or weed control at 70 g/ha [%]
COC(=O)c1nc(-c2c(F)cc(Cl)c(F)c2C)cc(N)c1Cl [Compound 38, methyl 4-amino-3-chloro-6-(4-chloro-3,6-difluoro-2-methylphenyl)picolinate] | 0 to 29

Same assay, conditions: post-emergence, 336 h, SETFA: giant foxtail (Setaria faberi), 140 g ai/ha, 14 days after application, read-out: Visual Growth Reduction (%) 14 Days After Application SETFA

SMILES | pest or weed control at 140 g/ha [%]
COC(=O)c1nc(-c2c(F)cc(Cl)c(F)c2C)cc(N)c1Cl [Compound 38, methyl 4-amino-3-chloro-6-(4-chloro-3,6-difluoro-2-methylphenyl)picolinate] | 0 to 29

Same assay, conditions: post-emergence, 336 h, SORVU: grain sorghum (Sorghum vulgare), 70 g ai/ha, 14 days after application, read-out: Visual Growth Reduction (%) 14 Days After Application SORVU

SMILES | pest or weed control at 70 g/ha [%]
COC(=O)c1nc(-c2c(F)cc(Cl)c(F)c2C)cc(N)c1Cl [Compound 38, methyl 4-amino-3-chloro-6-(4-chloro-3,6-difluoro-2-methylphenyl)picolinate] | 0 to 29

Same assay, conditions: post-emergence, 336 h, SORVU: grain sorghum (Sorghum vulgare), 140 g ai/ha, 14 days after application, read-out: Visual Growth Reduction (%) 14 Days After Application SORVU

SMILES | pest or weed control at 140 g/ha [%]
COC(=O)c1nc(-c2c(F)cc(Cl)c(F)c2C)cc(N)c1Cl [Compound 38, methyl 4-amino-3-chloro-6-(4-chloro-3,6-difluoro-2-methylphenyl)picolinate] | 0 to 29

Same assay, conditions: post-emergence, 336 h, TRZSS (crop), 70 g ai/ha, 14 days after application, read-out: Visual Growth Reduction (%) 14 Days After Application TRZSS

SMILES | pest or weed control at 70 g/ha [%]
COC(=O)c1nc(-c2c(F)cc(Cl)c(F)c2C)cc(N)c1Cl [Compound 38, methyl 4-amino-3-chloro-6-(4-chloro-3,6-difluoro-2-methylphenyl)picolinate] | 45 to 59

Same assay, conditions: post-emergence, 336 h, TRZSS (crop), 140 g ai/ha, 14 days after application, read-out: Visual Growth Reduction (%) 14 Days After Application TRZSS

SMILES | pest or weed control at 140 g/ha [%]
COC(=O)c1nc(-c2c(F)cc(Cl)c(F)c2C)cc(N)c1Cl [Compound 38, methyl 4-amino-3-chloro-6-(4-chloro-3,6-difluoro-2-methylphenyl)picolinate] | 60 to 74

Same assay, conditions: post-emergence, 336 h, ZEAMX: maize, corn (Zea mays), 70 g ai/ha, 14 days after application, read-out: Visual Growth Reduction (%) 14 Days After Application ZEAMX

SMILES | pest or weed control at 70 g/ha [%]
COC(=O)c1nc(-c2c(F)cc(Cl)c(F)c2C)cc(N)c1Cl [Compound 38, methyl 4-amino-3-chloro-6-(4-chloro-3,6-difluoro-2-methylphenyl)picolinate] | 0 to 29

Same assay, conditions: post-emergence, 336 h, ZEAMX: maize, corn (Zea mays), 140 g ai/ha, 14 days after application, read-out: Visual Growth Reduction (%) 14 Days After Application ZEAMX

SMILES | pest or weed control at 140 g/ha [%]
COC(=O)c1nc(-c2c(F)cc(Cl)c(F)c2C)cc(N)c1Cl [Compound 38, methyl 4-amino-3-chloro-6-(4-chloro-3,6-difluoro-2-methylphenyl)picolinate] | 0 to 29

System: Key Broadleaf Weed and Crop Species
Assay: Post-Emergent Test II (Table 5)
Type: in vivo
Settings: Abutilon theophrasti, post-emergence, 336 h, ABUTH: velvetleaf (Abutilon theophrasti), application rate 70 (kg ai/ha; footnote: g ai/ha), read-out: Visual Growth Reduction (%) 14 Days After Application ABUTH
How it was run: as §1

SMILES | pest or weed control at 70 g/ha [%]
COC(=O)c1nc(-c2c(F)cc(Cl)c(F)c2C)cc(N)c1Cl [Compound 38, methyl 4-amino-3-chloro-6-(4-chloro-3,6-difluoro-2-methylphenyl)picolinate] | 95 to 100

Same assay, conditions: Abutilon theophrasti, post-emergence, 336 h, ABUTH: velvetleaf (Abutilon theophrasti), application rate 140 (kg ai/ha; footnote: g ai/ha), read-out: Visual Growth Reduction (%) 14 Days After Application ABUTH

SMILES | pest or weed control at 140 g/ha [%]
COC(=O)c1nc(-c2c(F)cc(Cl)c(F)c2C)cc(N)c1Cl [Compound 38, methyl 4-amino-3-chloro-6-(4-chloro-3,6-difluoro-2-methylphenyl)picolinate] | 95 to 100

Same assay, conditions: Amaranthus retroflexus, post-emergence, 336 h, AMARE: redroot pigweed (Amaranthus retroflexus), application rate 70 (kg ai/ha; footnote: g ai/ha), read-out: Visual Growth Reduction (%) 14 Days After Application AMARE

SMILES | pest or weed control at 70 g/ha [%]
COC(=O)c1nc(-c2c(F)cc(Cl)c(F)c2C)cc(N)c1Cl [Compound 38, methyl 4-amino-3-chloro-6-(4-chloro-3,6-difluoro-2-methylphenyl)picolinate] | 95 to 100

Same assay, conditions: Amaranthus retroflexus, post-emergence, 336 h, AMARE: redroot pigweed (Amaranthus retroflexus), application rate 140 (kg ai/ha; footnote: g ai/ha), read-out: Visual Growth Reduction (%) 14 Days After Application AMARE

SMILES | pest or weed control at 140 g/ha [%]
COC(=O)c1nc(-c2c(F)cc(Cl)c(F)c2C)cc(N)c1Cl [Compound 38, methyl 4-amino-3-chloro-6-(4-chloro-3,6-difluoro-2-methylphenyl)picolinate] | 95 to 100

Same assay, conditions: Brassica napus, post-emergence, 336 h, BRSSS: oilseed rape, canola (Brassica napus), application rate 70 (kg ai/ha; footnote: g ai/ha), read-out: Visual Growth Reduction (%) 14 Days After Application BRSSS

SMILES | pest or weed control at 70 g/ha [%]
COC(=O)c1nc(-c2c(F)cc(Cl)c(F)c2C)cc(N)c1Cl [Compound 38, methyl 4-amino-3-chloro-6-(4-chloro-3,6-difluoro-2-methylphenyl)picolinate] | 95 to 100

Same assay, conditions: Brassica napus, post-emergence, 336 h, BRSSS: oilseed rape, canola (Brassica napus), application rate 140 (kg ai/ha; footnote: g ai/ha), read-out: Visual Growth Reduction (%) 14 Days After Application BRSSS

SMILES | pest or weed control at 140 g/ha [%]
COC(=O)c1nc(-c2c(F)cc(Cl)c(F)c2C)cc(N)c1Cl [Compound 38, methyl 4-amino-3-chloro-6-(4-chloro-3,6-difluoro-2-methylphenyl)picolinate] | 95 to 100

Same assay, conditions: Chenopodium album, post-emergence, 336 h, CHEAL: lambsquarters (Chenopodium album), application rate 70 (kg ai/ha; footnote: g ai/ha), read-out: Visual Growth Reduction (%) 14 Days After Application CHEAL

SMILES | pest or weed control at 70 g/ha [%]
COC(=O)c1nc(-c2c(F)cc(Cl)c(F)c2C)cc(N)c1Cl [Compound 38, methyl 4-amino-3-chloro-6-(4-chloro-3,6-difluoro-2-methylphenyl)picolinate] | 85 to 94

Same assay, conditions: Chenopodium album, post-emergence, 336 h, CHEAL: lambsquarters (Chenopodium album), application rate 140 (kg ai/ha; footnote: g ai/ha), read-out: Visual Growth Reduction (%) 14 Days After Application CHEAL

SMILES | pest or weed control at 140 g/ha [%]
COC(=O)c1nc(-c2c(F)cc(Cl)c(F)c2C)cc(N)c1Cl [Compound 38, methyl 4-amino-3-chloro-6-(4-chloro-3,6-difluoro-2-methylphenyl)picolinate] | 95 to 100

Same assay, conditions: Euphorbia heterophylla, post-emergence, 336 h, EPHHL: wild poinsettia (Euphorbia heterophylla), application rate 70 (kg ai/ha; footnote: g ai/ha), read-out: Visual Growth Reduction (%) 14 Days After Application EPHHL

SMILES | pest or weed control at 70 g/ha [%]
COC(=O)c1nc(-c2c(F)cc(Cl)c(F)c2C)cc(N)c1Cl [Compound 38, methyl 4-amino-3-chloro-6-(4-chloro-3,6-difluoro-2-methylphenyl)picolinate] | 30 to 44

Same assay, conditions: Euphorbia heterophylla, post-emergence, 336 h, EPHHL: wild poinsettia (Euphorbia heterophylla), application rate 140 (kg ai/ha; footnote: g ai/ha), read-out: Visual Growth Reduction (%) 14 Days After Application EPHHL

SMILES | pest or weed control at 140 g/ha [%]
COC(=O)c1nc(-c2c(F)cc(Cl)c(F)c2C)cc(N)c1Cl [Compound 38, methyl 4-amino-3-chloro-6-(4-chloro-3,6-difluoro-2-methylphenyl)picolinate] | 45 to 59

Same assay, conditions: Helianthus annuus, post-emergence, 336 h, HELAN: sunflower (Helianthus annuus), application rate 70 (kg ai/ha; footnote: g ai/ha), read-out: Visual Growth Reduction (%) 14 Days After Application HELAN

SMILES | pest or weed control at 70 g/ha [%]
COC(=O)c1nc(-c2c(F)cc(Cl)c(F)c2C)cc(N)c1Cl [Compound 38, methyl 4-amino-3-chloro-6-(4-chloro-3,6-difluoro-2-methylphenyl)picolinate] | 75 to 84

Same assay, conditions: Helianthus annuus, post-emergence, 336 h, HELAN: sunflower (Helianthus annuus), application rate 140 (kg ai/ha; footnote: g ai/ha), read-out: Visual Growth Reduction (%) 14 Days After Application HELAN

SMILES | pest or weed control at 140 g/ha [%]
COC(=O)c1nc(-c2c(F)cc(Cl)c(F)c2C)cc(N)c1Cl [Compound 38, methyl 4-amino-3-chloro-6-(4-chloro-3,6-difluoro-2-methylphenyl)picolinate] | 95 to 100

Same assay, conditions: Viola tricolor, post-emergence, 336 h, VIOTR: wild pansy (Viola tricolor), application rate 70 (kg ai/ha; footnote: g ai/ha), read-out: Visual Growth Reduction (%) 14 Days After Application VIOTR

SMILES | pest or weed control at 70 g/ha [%]
COC(=O)c1nc(-c2c(F)cc(Cl)c(F)c2C)cc(N)c1Cl [Compound 38, methyl 4-amino-3-chloro-6-(4-chloro-3,6-difluoro-2-methylphenyl)picolinate] | 75 to 84

Same assay, conditions: Viola tricolor, post-emergence, 336 h, VIOTR: wild pansy (Viola tricolor), application rate 140 (kg ai/ha; footnote: g ai/ha), read-out: Visual Growth Reduction (%) 14 Days After Application VIOTR

SMILES | pest or weed control at 140 g/ha [%]
COC(=O)c1nc(-c2c(F)cc(Cl)c(F)c2C)cc(N)c1Cl [Compound 38, methyl 4-amino-3-chloro-6-(4-chloro-3,6-difluoro-2-methylphenyl)picolinate] | 85 to 94

System: not given
Assay: not given
Settings: not given

melting point [°C] | SMILES
144 to 146 | COC(=O)c1nc(-c2c(F)cc(Cl)c(F)c2C)cc(N)c1Cl [Compound 38, methyl 4-amino-3-chloro-6-(4-chloro-3,6-difluoro-2-methylphenyl)picolinate]
